# Measured values: patent US20240027453A1, “METHOD FOR DETECTION AND QUANTITATIVE MONITORING OF INFECTIONS WITH HERPESVIRUSES” (The Trustees of Princeton University, priority 2020, published 2024)
# Read-outs that look alike come from different tables or passages of the source.
# Tested on: HCMV
# Assay type: cell-based
# Method: In example herpesvirus PRM assay methods shown herein, cell pellets were lysed in 2% SDS, 100 mM NaCl, 0.5 mM EDTA, 50 mM Tris, pH 8.2, and 50 μg of protein was reduced and alkylated with 25 mM TCEP and 50 mM CAM respectively for 20 min at 70° C. Proteins were then precipitated via methanol chloroform precipitation (Wessel & Flugg, Anal Biochem. 138(1):141-143, 1984), resuspended in 50 mM HEPES, pH 8.2 and digested overnight with trypsin (50:1 protein:enzyme w/w ratio). Digested peptides were desalted by SDB-RPS StageTip as previously described (Lum et al., Cell Syst., 7(6):[…], 2018; Greco et al., Methods Mol Biol 1410:39-63, 2016; Federspiel & Cristea, Methods Mol Biol., 1977:115-143, 2019).
# Peptides (1.0 μg on column) were analyzed by LC-MS/MS using a Dionex Ultimate 3000 UHPLC coupled online to an EASYSpray ion source and a Q Exactive HF. Peptides were separated on an EASYSpray C18 column (75 μm×25 cm) heated to 50° C. using a linear gradient of 5% B to 32% B over 60 min at a flow rate of 250 nL/min and were ionized at 1.7 kv. Mobile phase A consisted of 0.1% FA in H2O and mobile phase B consisted of 0.1% FA, 2.9% H2O in ACN.
# The PRM method was controlled by a peptide inclusion list with retention time windows of 6 min for selected precursor ions.
# The PRM assay was developed and analyzed using the open-source software Skyline (Maclean et al., Bioinformatics 26(7):966-968, 2010). Summed area under the curve of 3-4 transitions per peptide was used for quantitation. Targeted peptides were normalized to host protein loading control peptides. Peptide values for each sample were scaled to the average of each peptide across all runs. The average of multiple peptides was used as the inferred value for the protein measurement when more than one peptide was quantified (Federspiel et al., PLoS Biol. 17(9):e3000437. Doi: 10.1371/journal.pbio.3000437). PRM quantitation data were graphed using the Python Seaborn and Matplotlib libraries.
# MRC5 primary human fibroblasts (HFs) (ATCC CCL-171) were used as the model system for HSV-1 and HCMV infections and were cultured in complete growth medium (DMEM supplemented with 10% fetal bovine serum and 1% penicillin-streptomycin antibiotics) at 37° C. and 5% CO2. iSLK.219 cells harboring latent KSHV (a gift from Dr. Britt Glaunsinger, University of California, Berkeley) were grown in complete growth medium supplemented with 500 μg/ml hygromycin (ThermoFisher Scientific, 10687010) at 37° C. and 5% CO2. All cells were used for experiments within a maximum of 10 passages.
# Wild type HSV-1 strain 17+ (a gift from Beate Sodeik, Hannover Medical School, Hannover, Germany) was propagated as previously described (Diner et al., 2015). Briefly, PO stocks were generated by electroporating pBAC-HSV-1 into U-2 OS cells. […] In a similar manner, wild type HCMV strain AD169 was produced from BAC electroporation into HFs and working stocks were propagated by infecting HFs at a low level. In both cases, cell-associated virus was released by sonication, combined with supernatant virus, then concentrated by ultracentrifugation (20,000 rpm, 2 hours, 4° C. with SW28 swinging bucket rotor [Beckman Coulter]) over a 10% ficoll (HSV-1) or 20% sorbitol (HCMV) cushion. Virus stock titers were determined by plaque assay for HSV-1 or tissue culture infectious dose (TCID50) for HCMV and infections were performed at a multiplicity of infection (MOI) of 3.
# 12 hours prior to virus infection or reactivation, cells were treated with either the small molecule drug or DMSO/PBS control at an equivalent volume. […] For infection cycles lasting longer than 24 hours, small molecule drugs were re-added to the cell culture medium every 24 hours. Upon collection, cells were rinsed with PBS, scraped into a microcentrifuge tube, pelleted by centrifugation, and rinsed again with PBS.
structure (smiles),measurement,setting,value
"Nc1ccn(C[C@@H](CO)OCP(=O)(O)O)c(=O)n1 [CDV, cidofovir]","UL80 (P16753) protein, numerical value of heatmap FIG. 6C","L, timepoint 96",1.017
same,"UL82 (P06726) protein, numerical value of heatmap FIG. 6C","L, timepoint 96",0.9932
same,"UL87 (P16730) protein, numerical value of heatmap FIG. 6C","L, timepoint 96",0.3187
same,"UL88 (P16731) protein, numerical value of heatmap FIG. 6C","L, timepoint 96",0.6827
same,"UL94 (P16800) protein, numerical value of heatmap FIG. 6C","L, timepoint 96",0.8521
same,"UL99 (P13200) protein, numerical value of heatmap FIG. 6C","L, timepoint 96",0.9111
same,"UL103 (P16734) protein, numerical value of heatmap FIG. 6C","L, timepoint 96",0.899
same,"UL117 (P16770) protein, numerical value of heatmap FIG. 6C","L, timepoint 96",0.5858
same,"gH (P12824) protein, numerical value of heatmap FIG. 6C","L, timepoint 96",1.268
same,"gL (P16832) protein, numerical value of heatmap FIG. 6C","L, timepoint 96",0.676
same,"gM (P16733) protein, numerical value of heatmap FIG. 6C","L, timepoint 96",0.9966
same,"gN (P16795) protein, numerical value of heatmap FIG. 6C","L, timepoint 96",0.6947
same,"sp|P16809|IR11_HCMVA (P16809) protein, numerical value of heatmap FIG. 6C","L, timepoint 96",0.6961
same,"CVC1 (P16799) protein, numerical value of heatmap FIG. 6C","L, timepoint 120",0.8775
same,"GO (P16750) protein, numerical value of heatmap FIG. 6C","L, timepoint 120",0.821
same,"MCP (P16729) protein, numerical value of heatmap FIG. 6C","L, timepoint 120",1.664
same,"SCP (Q7M6N6) protein, numerical value of heatmap FIG. 6C","L, timepoint 120",1.225
same,"TRM2 (P16792) protein, numerical value of heatmap FIG. 6C","L, timepoint 120",1.244
same,"UL22A (P16845) protein, numerical value of heatmap FIG. 6C","L, timepoint 120",1.64
same,"UL25 (P16761) protein, numerical value of heatmap FIG. 6C","L, timepoint 120",1.445
same,"UL29 (P16764) protein, numerical value of heatmap FIG. 6C","L, timepoint 120",1.329
same,"UL30 (P16765) protein, numerical value of heatmap FIG. 6C","L, timepoint 120",0.9125
same,"UL31 (P16848) protein, numerical value of heatmap FIG. 6C","L, timepoint 120",1.094
same,"UL43 (P16781) protein, numerical value of heatmap FIG. 6C","L, timepoint 120",1.1093
same,"UL52 (P16793) protein, numerical value of heatmap FIG. 6C","L, timepoint 120",1.493
same,"UL76 (P16725) protein, numerical value of heatmap FIG. 6C","L, timepoint 120",0.7396
same,"UL79 (P16752) protein, numerical value of heatmap FIG. 6C","L, timepoint 120",0.8598
same,"UL80 (P16753) protein, numerical value of heatmap FIG. 6C","L, timepoint 120",1.249
same,"UL82 (P06726) protein, numerical value of heatmap FIG. 6C","L, timepoint 120",1.469
same,"UL87 (P16730) protein, numerical value of heatmap FIG. 6C","L, timepoint 120",0.5716
same,"UL88 (P16731) protein, numerical value of heatmap FIG. 6C","L, timepoint 120",0.8088
same,"UL94 (P16800) protein, numerical value of heatmap FIG. 6C","L, timepoint 120",1.266
same,"UL99 (P13200) protein, numerical value of heatmap FIG. 6C","L, timepoint 120",1.628
same,"UL103 (P16734) protein, numerical value of heatmap FIG. 6C","L, timepoint 120",1.157
same,"UL117 (P16770) protein, numerical value of heatmap FIG. 6C","L, timepoint 120",0.837
same,"gH (P12824) protein, numerical value of heatmap FIG. 6C","L, timepoint 120",1.57
same,"gL (P16832) protein, numerical value of heatmap FIG. 6C","L, timepoint 120",1.175
same,"gM (P16733) protein, numerical value of heatmap FIG. 6C","L, timepoint 120",1.476
same,"gN (P16795) protein, numerical value of heatmap FIG. 6C","L, timepoint 120",1.396
same,"sp|P16809|IR11_HCMVA (P16809) protein, numerical value of heatmap FIG. 6C","L, timepoint 120",0.7634
same,"TRX2 (P16728) protein, numerical value of heatmap FIG. 6C","LL, timepoint 24",0.008754
same,"UL69 (P16749) protein, numerical value of heatmap FIG. 6C","LL, timepoint 24",0.1676
same,"UL70 (P17149) protein, numerical value of heatmap FIG. 6C","LL, timepoint 24",0.06824
same,"UL83 (P06725) protein, numerical value of heatmap FIG. 6C","LL, timepoint 24",0.03389
same,"UL132 (P69338) protein, numerical value of heatmap FIG. 6C","LL, timepoint 24",0.04048
same,"US15 (P09718) protein, numerical value of heatmap FIG. 6C","LL, timepoint 24",0.5879
same,"DUT (P16824) protein, numerical value of heatmap FIG. 6C","LL, timepoint 48",0.2905
same,"TRX1 (P16783) protein, numerical value of heatmap FIG. 6C","LL, timepoint 48",0.01277
same,"TRX2 (P16728) protein, numerical value of heatmap FIG. 6C","LL, timepoint 48",0.01952
same,"UL24 (P16760) protein, numerical value of heatmap FIG. 6C","LL, timepoint 48",0.107
same,"UL40 (P16780) protein, numerical value of heatmap FIG. 6C","LL, timepoint 48",0.3905
